Experimental data taken from paper PMC12136037, “Type II kinase inhibitors that target Parkinson’s disease–associated LRRK2” (Science Advances, 2025).
Where two headings read alike, the source gives them in different places.

Tests used:
Test in all cases: DSF 100 kinase selectivity screen;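 for dTm: compound tested at 20 µM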
Type in all cases: binding
[1] = tested on: ~100 representative kinases; conditions: for dTm: Protein BRD, average of three replicates
Summary of the method: (§1)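 Each kinase domain, at 2 μM, is mixed with 20 μM test compound and SYPRO Orange in Hepes (20 mM, pH 7.5) with 500 mM NaCl. Temperature is then raised at 3°C/min and fluorescence-monitored unfolding yields the melting temperature change, ΔTm in degrees Celsius.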

[2] = molecular target: T1, ~100 representative kinases (Homo sapiens, UniProt O94768); conditions: Protein STK17B; DSF; average of three replicates
T1 construct: Recombinant protein kinase domains with a concentration of 2 μM
T1 sequence (O94768 1-372): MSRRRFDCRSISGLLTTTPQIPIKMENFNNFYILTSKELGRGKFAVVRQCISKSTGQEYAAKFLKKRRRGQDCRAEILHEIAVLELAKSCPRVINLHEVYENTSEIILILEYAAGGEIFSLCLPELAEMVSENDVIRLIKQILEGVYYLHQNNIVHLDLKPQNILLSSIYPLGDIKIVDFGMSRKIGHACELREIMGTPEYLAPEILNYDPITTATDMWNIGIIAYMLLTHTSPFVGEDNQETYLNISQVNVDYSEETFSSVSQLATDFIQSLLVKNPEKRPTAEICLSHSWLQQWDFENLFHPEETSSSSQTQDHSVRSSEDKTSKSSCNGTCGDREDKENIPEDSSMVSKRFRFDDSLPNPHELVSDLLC
Summary of the method: as §1

[3] = molecular target: T2, ~100 representative kinases (Homo sapiens, UniProt P51813); conditions: Protein BMX; average of three replicates
T2 construct: Recombinant protein kinase domains with a concentration of 2 μM
T2 sequence (P51813 1-675): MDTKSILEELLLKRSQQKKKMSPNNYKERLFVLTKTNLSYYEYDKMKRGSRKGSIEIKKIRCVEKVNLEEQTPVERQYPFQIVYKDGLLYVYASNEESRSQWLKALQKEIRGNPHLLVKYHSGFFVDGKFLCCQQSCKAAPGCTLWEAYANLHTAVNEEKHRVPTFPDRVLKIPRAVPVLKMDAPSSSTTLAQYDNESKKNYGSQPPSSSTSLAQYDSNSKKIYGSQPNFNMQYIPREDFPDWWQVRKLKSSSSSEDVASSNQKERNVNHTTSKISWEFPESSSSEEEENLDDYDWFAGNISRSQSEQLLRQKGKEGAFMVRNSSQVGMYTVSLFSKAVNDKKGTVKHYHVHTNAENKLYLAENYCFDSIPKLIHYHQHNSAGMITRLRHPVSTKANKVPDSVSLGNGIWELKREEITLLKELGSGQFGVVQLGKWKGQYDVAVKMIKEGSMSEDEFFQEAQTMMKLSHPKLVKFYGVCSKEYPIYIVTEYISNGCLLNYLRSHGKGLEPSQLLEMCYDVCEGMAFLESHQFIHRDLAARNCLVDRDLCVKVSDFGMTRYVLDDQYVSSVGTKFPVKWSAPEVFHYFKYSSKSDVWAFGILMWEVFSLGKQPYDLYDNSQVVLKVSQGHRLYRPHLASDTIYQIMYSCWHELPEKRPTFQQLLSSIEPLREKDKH
Summary of the method: as §1

[4] = molecular target: T3, ~100 representative kinases (Homo sapiens, UniProt Q9Y2H1); conditions: Protein STK38L; DSF; average of three replicates
T3 construct: Recombinant protein kinase domains with a concentration of 2 μM
Summary of the method: as §1

[5] = molecular target: T4, ~100 representative kinases (Homo sapiens, UniProt P33981); conditions: Protein TTK; DSF; average of three replicates
T4 construct: Recombinant protein kinase domains with a concentration of 2 μM
T4 sequence (P33981 1-857): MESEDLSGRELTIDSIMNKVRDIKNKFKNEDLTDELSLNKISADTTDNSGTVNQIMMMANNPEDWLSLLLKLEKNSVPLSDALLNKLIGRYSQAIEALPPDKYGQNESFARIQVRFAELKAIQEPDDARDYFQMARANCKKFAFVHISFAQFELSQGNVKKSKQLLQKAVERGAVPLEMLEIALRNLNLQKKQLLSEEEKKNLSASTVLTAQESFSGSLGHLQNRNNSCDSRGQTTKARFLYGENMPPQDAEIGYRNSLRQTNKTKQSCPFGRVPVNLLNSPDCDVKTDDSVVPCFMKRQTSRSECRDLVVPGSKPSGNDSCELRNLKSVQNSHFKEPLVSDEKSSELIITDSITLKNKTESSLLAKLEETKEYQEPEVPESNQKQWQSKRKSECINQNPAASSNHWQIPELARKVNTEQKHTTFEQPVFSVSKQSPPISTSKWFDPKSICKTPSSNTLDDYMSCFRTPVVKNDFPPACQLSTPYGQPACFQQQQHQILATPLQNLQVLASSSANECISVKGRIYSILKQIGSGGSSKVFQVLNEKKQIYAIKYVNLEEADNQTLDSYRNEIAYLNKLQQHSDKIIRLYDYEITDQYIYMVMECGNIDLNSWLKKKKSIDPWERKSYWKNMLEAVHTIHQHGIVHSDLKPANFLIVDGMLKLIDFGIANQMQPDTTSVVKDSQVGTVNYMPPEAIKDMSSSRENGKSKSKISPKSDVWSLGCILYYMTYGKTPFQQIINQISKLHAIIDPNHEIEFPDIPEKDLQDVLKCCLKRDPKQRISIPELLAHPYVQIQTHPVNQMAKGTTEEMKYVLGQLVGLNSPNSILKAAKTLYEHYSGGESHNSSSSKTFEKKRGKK
Summary of the method: as §1

[6] = molecular target: T5, ~100 representative kinases (Homo sapiens, UniProt P51955); conditions: protein NEK2; average of three replicates
T5 construct: Recombinant protein kinase domains with a concentration of 2 μM
T5 sequence (P51955 1-445): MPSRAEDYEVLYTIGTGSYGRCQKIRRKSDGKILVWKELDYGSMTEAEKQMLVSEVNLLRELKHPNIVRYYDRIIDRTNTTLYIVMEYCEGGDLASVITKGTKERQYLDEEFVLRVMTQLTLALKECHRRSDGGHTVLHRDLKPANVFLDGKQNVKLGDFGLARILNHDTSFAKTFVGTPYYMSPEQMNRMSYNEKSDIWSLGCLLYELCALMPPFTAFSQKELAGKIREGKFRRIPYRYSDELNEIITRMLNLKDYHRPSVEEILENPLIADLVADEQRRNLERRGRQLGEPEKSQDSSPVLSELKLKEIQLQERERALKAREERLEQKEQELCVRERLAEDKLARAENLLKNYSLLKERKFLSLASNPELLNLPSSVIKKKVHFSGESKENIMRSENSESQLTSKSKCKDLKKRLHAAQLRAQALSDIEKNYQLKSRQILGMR
Summary of the method: as §1

[7] = molecular target: T6, ~100 representative kinases (Homo sapiens, UniProt Q9H2G2)
T6 construct: Recombinant protein kinase domains with a concentration of 2 μM
Summary of the method: as §1

[8] = number of kinases with thermal shift >5 K divided by total number of kinases screened
[9] = number of proteins of the DSF panel with dTm >5K
[10] = selectivity score: # >5K divided by # of proteins tested in the DSF panel
[11] = Protein SLK, DSF, average of three replicates

T3 sequence (Q9Y2H1 whole entry, the tested form may be a part): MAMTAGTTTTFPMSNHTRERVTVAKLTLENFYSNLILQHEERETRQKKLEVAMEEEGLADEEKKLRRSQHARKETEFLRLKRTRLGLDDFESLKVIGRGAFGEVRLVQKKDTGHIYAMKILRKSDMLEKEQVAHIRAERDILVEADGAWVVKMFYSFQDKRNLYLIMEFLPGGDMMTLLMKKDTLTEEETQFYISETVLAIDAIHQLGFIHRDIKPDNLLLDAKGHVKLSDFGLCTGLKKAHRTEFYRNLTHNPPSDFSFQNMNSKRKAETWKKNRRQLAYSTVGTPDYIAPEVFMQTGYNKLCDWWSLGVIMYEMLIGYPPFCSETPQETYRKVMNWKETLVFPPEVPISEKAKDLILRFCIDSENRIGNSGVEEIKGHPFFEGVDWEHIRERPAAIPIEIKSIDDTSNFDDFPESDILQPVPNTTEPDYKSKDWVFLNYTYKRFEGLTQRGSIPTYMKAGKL
T6 sequence (Q9H2G2 whole entry, the tested form may be a part): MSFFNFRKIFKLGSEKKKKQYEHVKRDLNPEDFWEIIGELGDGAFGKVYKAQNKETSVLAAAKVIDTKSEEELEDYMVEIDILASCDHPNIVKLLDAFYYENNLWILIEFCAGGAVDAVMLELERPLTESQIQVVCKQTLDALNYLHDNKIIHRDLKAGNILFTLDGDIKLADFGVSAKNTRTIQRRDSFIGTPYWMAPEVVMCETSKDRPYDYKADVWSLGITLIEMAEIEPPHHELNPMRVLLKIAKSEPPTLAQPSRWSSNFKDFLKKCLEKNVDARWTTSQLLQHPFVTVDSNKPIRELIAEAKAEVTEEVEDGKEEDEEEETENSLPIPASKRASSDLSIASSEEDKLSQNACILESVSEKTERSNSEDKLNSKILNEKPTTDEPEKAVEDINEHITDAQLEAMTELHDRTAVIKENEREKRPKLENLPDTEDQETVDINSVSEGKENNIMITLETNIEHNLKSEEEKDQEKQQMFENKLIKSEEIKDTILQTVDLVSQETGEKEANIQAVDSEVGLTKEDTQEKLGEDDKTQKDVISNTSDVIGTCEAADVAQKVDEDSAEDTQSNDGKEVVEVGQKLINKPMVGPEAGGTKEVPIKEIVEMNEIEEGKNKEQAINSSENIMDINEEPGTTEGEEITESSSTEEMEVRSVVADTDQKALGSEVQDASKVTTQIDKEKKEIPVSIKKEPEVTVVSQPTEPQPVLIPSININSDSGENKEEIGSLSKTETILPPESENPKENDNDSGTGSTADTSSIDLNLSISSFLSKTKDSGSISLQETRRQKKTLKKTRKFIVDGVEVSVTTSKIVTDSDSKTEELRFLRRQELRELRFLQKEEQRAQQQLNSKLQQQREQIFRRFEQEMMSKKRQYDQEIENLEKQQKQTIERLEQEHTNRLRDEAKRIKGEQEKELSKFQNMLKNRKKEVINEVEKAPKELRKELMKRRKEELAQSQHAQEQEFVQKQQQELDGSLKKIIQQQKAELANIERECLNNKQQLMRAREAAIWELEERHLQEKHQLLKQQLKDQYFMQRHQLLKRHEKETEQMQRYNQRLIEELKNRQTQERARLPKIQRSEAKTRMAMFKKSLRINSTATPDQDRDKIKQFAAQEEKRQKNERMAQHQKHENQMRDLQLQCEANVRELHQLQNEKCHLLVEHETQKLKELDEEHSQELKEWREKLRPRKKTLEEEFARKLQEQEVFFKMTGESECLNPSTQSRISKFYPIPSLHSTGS

Structure (SMILES)	dTm [1]	S(5K) [1, 8]	# >5K [1, 9]	S(5K) [1, 10]	dTm [2]	dTm [3]	dTm [4]	dTm [5]	dTm [6]	dTm [7, 11]	# >5K [1]	S(5K) [1]	dTm [7]
Cc1ccc(C(=O)Nc2ccc(CN3CCN(C)CC3)c(C(F)(F)F)c2)cc1C#Cc1c[nH]c2ncnc(N3CCOCC3)c12 [Compound 1]	0.03 K	0.20	21	0.200	0.19 K	1.60 K	2.95 K	0.00 K	4.11 K				
O=C(Nc1ccc(F)cc1)C1(C(=O)Nc2cccc(-c3c[nH]c4ncnc(N5CCOCC5)c34)c2)CC1 [Compound 2]	-1.00 K	0.28	28	0.280	6.81 K	0.39 K	-0.20 K	6.94 K	0.52 K	6.64 K			
O=C(Nc1cccc(-c2c[nH]c3ncnc(N4CCOCC4)c23)c1)c1cccn(-c2ccc(F)cc2)c1=O [Compound 4]	-1.99 K	0.33	33	0.330	6.49 K	1.71 K	-0.37 K	3.00 K	0.47 K	6.46 K			
Cc1cc(NC(=O)C2(C(=O)Nc3ccc(F)cc3)CC2)cc(-c2c[nH]c3ncnc(N4CCOCC4)c23)c1 [Compound 6]	0.73 K	0.13	13	0.125	0.00 K	0.51 K	0.00 K	5.72 K	0.05 K	4.64 K			
O=C(Nc1cccc(-c2c[nH]c3ncnc(N4CCOCC4)c23)c1)C1(C(=O)Nc2cccc3c2CCC3)CC1 [Compound 11]	1.00 K	0.15	16	0.154	0.00 K	1.17 K	0.00 K	6.04 K	-1.56 K	0.75 K			
O=C(Nc1ccccc1)C1(C(=O)Nc2cccc(-c3c[nH]c4ncnc(N5CCOCC5)c34)c2)CC1 [Compound 12]	-0.35 K	0.26	26	0.260	7.92 K	0.86 K	0.29 K	7.12 K	1.92 K	5.53 K			
O=C(Nc1ccc(Cl)cc1)C1(C(=O)Nc2cccc(-c3c[nH]c4ncnc(N5CCOCC5)c34)c2)CC1 [Compound 13]	1.19 K	0.37	37	0.370	8.61 K	0.67 K	0.49 K	6.50 K	2.76 K	7.45 K			
Cc1ccc(NC(=O)C2(C(=O)Nc3cccc(-c4c[nH]c5ncnc(N6CCOCC6)c45)c3)CC2)cc1 [Compound 14]	-1.11 K	0.22	22	0.220	4.70 K	0.15 K	0.07 K	4.57 K	0.85 K	5.25 K			
CCc1ccc(NC(=O)C2(C(=O)Nc3cccc(-c4c[nH]c5ncnc(N6CCOCC6)c45)c3)CC2)cc1 [Compound 15]	-2.47 K	0.23	23	0.230	6.64 K	0.11 K	0.73 K	6.77 K	2.27 K	5.04 K			
COc1ccc(NC(=O)C2(C(=O)Nc3cccc(-c4c[nH]c5ncnc(N6CCOCC6)c45)c3)CC2)cc1 [Compound 16]	-2.19 K	0.10	10	0.100	2.09 K	-0.18 K	-0.19 K	3.48 K	2.18 K	1.57 K			
Cc1ccc(C(=O)Nc2ccc(CN3CCN(C)CC3)c(C(F)(F)F)c2)cc1C#Cc1cnc2[nH]ncc2c1 [GZD-824, reference compound]	-0.37 K				-1.15 K		2.07 K	4.08 K	0.45 K		31	0.313	15.82 K
Cn1cc(-c2c[nH]c3ncnc(N4CCOCC4)c23)cc1C#N [PFE-360]	-0.51 K		12	0.118	-2.21 K	0.47 K	0.0435 K	0.43 K		3.08 K			
Cc1ccc(C(=O)Nc2ccc(CN3CCN(C)CC3)c(C(F)(F)F)c2)cc1C#Cc1cnc2cccnn12 [Ponatinib, reference compound]					-1.68 K						28	0.272	
CNC(=O)c1cc(Oc2ccc(NC(=O)Nc3cc(C(C)(C)C)nn3-c3ccc4ncccc4c3)c(F)c2)ccn1 [Rebastinib, reference compound]					6.81 K	7.16 K		8.07 K	2.06 K	14.21 K			
CN[C@@H]1C[C@H]2O[C@@](C)([C@@H]1OC)n1c3ccccc3c3c4c(c5c6ccccc6n2c5c31)C(=O)NC4 [Staurosporine]									4.25 K				
